Measured values: patent US5789395A, “Method of using tetracycline compounds for inhibition of endogenous nitric oxide production” (The Research Foundation of State University of New York, priority 1996, dated 1998)
≈ marks a conversion by molar mass, not a printed value. Like-named read-outs stand apart in the source and are kept apart here.

Key:
[1] = test system: iNOS in RAW 264.7 murine macrophage cells; test: nitrite accumulation in LPS-stimulated RAW 264.7 cells; assay type: cell-based; details: for IC50: Mus musculus
Experimental: RAW 264.7 murine macrophage cells (American Type Culture Collection, Rockville, Md.) were incubated with and without doxycycline or minocycline (5-80 μg/mL) for 1-2 h followed by activation through addition of 100 ng/mL of LPS (Sigma Chemical Co., St. Louis, Mo.) to induce iNOS (Stuehr et al. 1991). After 14-20 h of incubation, the medium was used to estimate nitrite accumulation by the modified Griess reaction (Gilliam et al. 1993). The values are represented as μM of nitrite accumulated at a given time interval; n=3. The statistics were derived using unpaired Student's t test. The data represent one of three similar experiments.

β-actin = β-actin levels in LPS-activated RAW 264.7 cells (Western blot); assay type: cell-based, murine; details: 20-80 μg/mL
Experimental: RAW 264.7 cells were activated with 100 ng/mL LPS for 16-18 h, with and without doxycycline or minocycline (20-80 μg/mL) or with hydrocortisone (10 μM). Cell-free extracts were prepared as described above. The extract s were analyzed for 133 kD iNOS by Western blotting, using specific anti-iNOS antibodies.
Equal amounts of protein (25-50 μg) estimated by BCA reagent (Pierce, Rockford, Ill.) were loaded onto SDS-PAGE gels and stained to verify the concentrations of various protein fractions by examining the intensities of the protein bands on the gels. Western blot analysis was carried out from the same cell extracts. The Western-blotted membrane was probed with a specific anti-murine iNOS monoclonal antibody (Transduction Laboratories, Lexington, Ky.), as specified by the supplier. The same blot was also probed with an anti-actin antibody generously provided by Dr. James L. Lessard (Children's Hospital Medical Center, Cincinnati, Ohio). The blots were developed using the ECL Western blot system (Amersham, Arlington Heights, Ill.). Quantitation of the bands was performed using a densitometer from Molecular Dynamics (Sunnyvale, Calif.). FIG. 5 is representative.

iNOS mRNA [2] = test: iNOS mRNA expression in LPS-stimulated RAW 264.7 cells (RT-PCR); assay type: cell-based, murine; details: 20-40 μg/mL
Experimental: Doxycycline and minocycline may suppress iNOS before the synthesis of the enzyme, leading to inhibition of iNOS protein expression, specific activity and accumulation of nitrite. […] Therefore, to determine the level at which tetracycline inhibited iNOS protein expression, RAW 264.7 cells treated with LPS in the presence or absence of doxycycline and minocycline were analyzed for iNOS mRNA by semi-quantitative RT-PCR.
The presence of iNOS and β-actin mRNA in cells was analyzed by reverse transcription (RT) of total RNA followed by PCR amplification of the cDNA. The sense and antisense oligonucleotides for iNOS were, respectively, 5'-ACGGAGAAGCTTAGATCTGGAGCAGAAGTG-3'(142 to 171) (SEQ ID NO:1) and 5'-CTGCAGGTTGGACCACTGGATCCTGCCGAT-3' (767 to 796) (SEQ ID NO:2). The sense and antisense primers for β-actin were 5'-TCCTTCGTTGCCGGTCCACA-3' (44 to 63) (SEQ ID NO:3) and 5'-CGTCTCCGGAGTCCATCACA-3' (534 to 552) (SEQ ID NO:4), respectively. The predicted PCR product of the iNOS cDNA was 654 bp; that of the β-actin cDNA was 508 bp. The polymerase chain reaction was carried out in an automated DNA thermal cycle (Perkin-Elmer Cetus, Norwalk, Conn.). The total RNA was extracted using TRI-Reagent (MRC Inc., Cincinnati, Ohio). The cDNA was prepared from equal amounts (1-5 μg) of total RNA using a SuperScript™ RNase H Reverse Transcriptase (Gibco BRL, Gaithersburg, Md.). An equal amount of the cDNA was used to amplify the mRNA by PCR. PCR amplification was performed in 50 μL solution containing 1.5 mM MgCl2, 500 ng iNOS primer, 100 ng β-actin primer, 0.2 mM of each dNTP, 2.5 units of Taq DNA polymerase (Gibco). The cycle conditions for amplification of cDNA were 1 min at 94° C., 1-2 min at 55° C. and 3 min at 72° C. for 30 cycles for both iNOS and β-actin. The PCR product was analyzed by electrophoresis on 1.0% agarose gels.
RT-PCR analysis of iNOS and βactin mRNA expression in RAW 264.7 cells was carried out after stimulation with LPS±doxycycline or minocycline. […] Equal amounts of RNA were analyzed for iNOS and β-actin expression as described above.

iNOS mRNA [3] = test: iNOS mRNA expression in LPS-stimulated RAW cells (Northern blot); assay type: cell-based, murine; details: Mus musculus, normalized against β-actin; for inhibition at 20 µg/mL: 20 μg/mL; for inhibition at 40 µg/mL: 40 μg/mL; for inhibition at 80 µg/mL: 80 μg/mL
Experimental: Northern blot analysis of the iNOS MRNA expressed by the cells was then carried out to evaluate precisely the effect of iNOS expression in the presence of doxycycline and minocycline. The probes again were the iNOS and β-actin CDNA probes described above.
In this case, total RNA was isolated using TRI Reagent (MRC Inc., Cincinnati, Ohio). […] Briefly, 30 μg of RNA was subjected to electrophoresis in 1% agarose formaldehyde gel. The gel was then transferred via capillary action onto a nylon membrane (Zeta Probe, Bio-Rad Laboratories, Melville, N.Y.). The membrane was hybridized with [^32 P]-dCTP-labeled iNOS CDNA (4 kb SmaI fragment), a kind gift from Dr. James Cunningham (Harvard Medical School, Boston, Mass.). After hybridization, the blot was exposed to Kodak X-ray film (Kodak, Rochester, N.Y.) for 24-48 h with intensifying screens at -70° C. The β-actin probe was purchased from ClonTech (Palo Alto, Calif.) and probed as described above. Quantitation of the intensity of the iNOS/β-actin bands was performed using a phosphoimager (Molecular Dynamics, Sunnyvale, Calif.).

[4] = test system: patients with mild and moderate arthritis; details: Tilley et al. 1995; cited from earlier work
[5] = test system: gelatinase in UMR 106-01 osteoblastic cell line; details: Vernillo et al. 1993; cited from earlier work
[6] = test system: gelatinase in ROS 17/2.8 osteoblastic cell line; details: Vernillo et al. 1993; cited from earlier work
collagenase = details: cited from earlier work
dog models of OA = details: prophylactic administration; Yu et al. (1992); cited from earlier work
cartilage = details: 20-50 μg/mL; Cole et al. 1994; cited from earlier work

SMILES	concentration at which inhibitory effects on iNOS expression (mRNA, specific activity and nitrite accumulation) reach a plateau [1] [µg/mL]	IC50 ([1]; RAW264.7, 14 h) [µg/mL]	IC50 ([1]; RAW264.7, 20 h) [µg/mL]	effect on the levels of β-actin synthesis (β-actin)	decrease of iNOS mRNA expression (iNOS mRNA [2]) [%]	inhibition at 20 µg/mL (iNOS mRNA [3]) [%]	inhibition at 40 µg/mL (iNOS mRNA [3]) [%]	inhibition at 80 µg/mL (iNOS mRNA [3]) [%]	safety and efficacy in arthritis [4]	IC50 ([1]; RAW264.7, 14 h of incubation, read-out: IC50) [µg/mL]	IC50 ([1]; RAW264.7, 20 h of incubation, read-out: IC50) [µg/mL]	concentration required to inhibit iNOS-mediated production of NO by >50% ([1]; compared to minocycline, 14 h and 20 h)	IC50, gelatinase activity [5] [µg/mL]	IC50, gelatinase activity [6] [µg/mL]	anti-collagenase activity (collagenase)	severity of OA (dog models of OA)	effect on proteoglycan loss and cell death (cartilage)
CN(C)c1ccc(O)c2c1C[C@H]1C[C@H]3[C@H](N(C)C)C(O)=C(C(N)=O)C(=O)[C@@]3(O)C(O)=C1C2=O [minocycline]	40 to 80	17 (≈ 37.2 µM)	12 (≈ 26.2 µM)	no significant effect	> 50	39	49	77	safe and effective for patients with mild and moderate arthritis	–	–	–	–	–	–	–	–
C[C@H]1c2cccc(O)c2C(O)=C2C(=O)[C@]3(O)C(O)=C(C(N)=O)C(=O)[C@@H](N(C)C)[C@@H]3[C@@H](O)[C@@H]21 [doxycycline]	40 to 80	–	–	no significant effect	> 50	68	75	79	–	72 (≈ 162 µM)	22 (≈ 49.5 µM)	significantly higher concentrations	> 200	20 to 30	inhibits collagenase activity via direct effects on the enzyme	markedly reduced the severity of OA	blocks proteoglycan loss and reduces the cell death associated with proteoglycan loss
